Measurements published in paper PMC4972190, “In vitro activity of salinomycin and monensin derivatives against Trypanosoma brucei” (Parasites & Vectors, 2016).
Converted amounts (≈) assume the structure as drawn. Where two headings read alike, the source gives them in different places.

Tests used:
[1] = system: Bloodstream forms of T. brucei (clone 427-221a); experiment: Toxicity assay (resazurin, 72 h) on bloodstream forms of T. brucei; format: cell-based, Trypanosoma brucei; conditions: for Selectivity GI50 ratio: GI50(HL-60)/GI50(T. brucei); for Selectivity MIC ratio: MIC(HL-60)/MIC(T. brucei); for GI50 / MIC: Trypanosoma brucei, 72 h; for MIC: concentration at which all cells were killed, determined microscopically, mean of three experiments
Experimental: (§1) Bloodstream forms of T. brucei (clone 427-221a) and human myeloid leukaemia HL-60 cells were grown in Baltz medium and RPMI medium, respectively. Both culture media were supplemented with 16.7 % (v/v) heat-inactivated foetal calf serum. All cultures were maintained in a humidified atmosphere containing 5 % CO2 at 37 °C.
(§2) Cells were seeded in 96-well plates in a final volume of 200 μl of their respective culture medium containing 10-fold serial dilutions of ionophore derivatives (10^-4 to 10^-10 M) and 1 % DMSO. Wells containing medium and 1 % DMSO served as controls. The initial cell densities were 1 × 10^4/ml for T. brucei and 1 × 10^5/ml for HL-60 cells. After 24 h incubation at 37 °C in a humidified atmosphere containing 5 % CO2, 20 μl of a 0.44 mM resazurin solution prepared in PBS was added and the cells were incubated for a further 48 h so that the total incubation time was 72 h. Thereafter, the plates were read on a microplate reader using a test wavelength of 570 nm and a reference wavelength of 630 nm. The 50 % growth inhibition (GI50) value, i.e. the concentration of a compound necessary to reduce the growth rate of cells by 50 % compared to the control was determined by linear interpolation according to the method described in [22]. The minimum inhibitory concentration (MIC) values, i.e. the concentration of the drug at which all trypanosome and human cells were killed, was determined microscopically. Each compound was independently tested three times.

[2] = system: human myeloid leukaemia HL-60 cells; experiment: Toxicity assay (resazurin, 72 h) on HL-60 cells; format: cell-based; conditions: for MIC: determined microscopically, mean of three experiments; for GI50: Homo sapiens
Experimental: as §1, §2

[3] = system: bloodstream forms of T. brucei; experiment: Measurement of changes in cell volume by light scattering; format: cell-based, Trypanosoma brucei; conditions: 100 μM; 5 × 10^7 cells/ml; measured every 15 min; decrease in absorbance = increase in cell volume
Experimental: Change in cell volume was determined by light scattering as previously described. In brief, bloodstream forms of T. brucei were seeded at a density of 5 × 10^7 cells/ml in 96-well plates in a final volume of 200 μl culture medium containing 100 μM of salinomycin or the salonimycin derivatives SAL-E7 or SAL-AM2 and 1 % DMSO. Absorbance of the cultures was measured at 490 nm every 15 min. A decrease in absorbance corresponded to an increase in cell volume. The experiment was repeated three times.
Change in cell volume can be measured by light scattering at 450–550 nm whereby a decrease in absorbance indicates swelling of cells. In order to be able to record measurable absorbance changes, a high cell density is required. […] However, the derivatives caused a slightly faster swelling of the cells than salinomyicn. […] During further incubation, trypanosomes increased their cell volume but cell swelling was much slower and much less. […] However, it seems that the transport efficiency determines the trypanocidal potency of salinomycin derivatives.
Fig. 3 Effect of salinomycin derivatives on the cell volume of bloodstream forms of T. brucei. […] Every 15 min, the absorbance at 490 nm was measured. […] Note that a decrease in absorbance corresponds to an increase in cell volume

[4] = system: Bloodstream forms of T. brucei (clone 427-221a); parameters: method as in PMID 23517602; conditions: human cells vs bloodstream forms of T. brucei; cited from earlier work
[5] = system: human peripheral blood mononuclear cells; parameters: method as in PMID 23517602, PMID 25769976; conditions: read-out: 50 % effective concentration (cytotoxicity); cited from earlier work
human nasal mucosa cells = system: human nasal mucosa cells; parameters: method as in PMID 23517602, PMID 25769976; conditions: read-out: 50 % effective concentration (cytotoxicity); cited from earlier work

## CCC(C(=O)NCCc1c[nH]c2ccccc12)C1CCC(C)C(C(C)C(O)C(C)C(=O)C(CC)C2OC3(C=CC(O)C4(CCC(C)(C5CCC(O)(CC)C(C)O5)O4)O3)C(C)CC2C)O1 (stereo not drawn) [SAL-AM4]
[1]
  Selectivity GI50 ratio: 9.1
  Selectivity MIC ratio: 10
  GI50: 2.69 ± 0.51 µM
[1]; T. brucei bloodstream forms
  MIC: 10 µM (≈ 8.93 µg/mL)
[2]; HL-60 cells, 72 h
  MIC: 100 µM (≈ 89.3 µg/mL)
[2]; HL-60, 72 h
  GI50: 24.5 ± 3.7 µM

## CCC(C(=O)NCCc1ccc(F)cc1)C1CCC(C)C(C(C)C(O)C(C)C(=O)C(CC)C2OC3(C=CC(O)C4(CCC(C)(C5CCC(O)(CC)C(C)O5)O4)O3)C(C)CC2C)O1 (stereo not drawn) [SAL-AM5]
[1]
  Selectivity GI50 ratio: 14.6
  Selectivity MIC ratio: 10
  GI50: 2.69 ± 0.2 µM
[1]; T. brucei bloodstream forms
  MIC: 10 µM (≈ 8.72 µg/mL)
[2]; HL-60 cells, 72 h
  MIC: 100 µM (≈ 87.2 µg/mL)
[2]; HL-60, 72 h
  GI50: 39.2 ± 1.6 µM

## CCC(C(=O)OC)C1CCC(C)C(C(C)C(O)C(C)C(=O)C(CC)C2OC3(C=CC(O)C4(CCC(C)(C5CCC(O)(CC)C(C)O5)O4)O3)C(C)CC2C)O1 (stereo not drawn) [SAL-E1]
[1]
  Selectivity GI50 ratio: 11.4
  Selectivity MIC ratio: 10
  GI50: 3.08 ± 0.18 µM
[1]; T. brucei bloodstream forms
  MIC: 10 µM (≈ 7.65 µg/mL)
[2]; HL-60 cells, 72 h
  MIC: 100 µM (≈ 76.5 µg/mL)
[2]; HL-60, 72 h
  GI50: 35.5 ± 2.4 µM

## CCC(C(=O)OCCO)C1CCC(C)C(C(C)C(O)C(C)C(=O)C(CC)C2OC3(C=CC(O)C4(CCC(C)(C5CCC(O)(CC)C(C)O5)O4)O3)C(C)CC2C)O1 (stereo not drawn) [SAL-E2]
[1]
  Selectivity GI50 ratio: 10.6
  Selectivity MIC ratio: 10
  GI50: 3.25 ± 0.26 µM
[1]; T. brucei bloodstream forms
  MIC: 10 µM (≈ 7.95 µg/mL)
[2]; HL-60 cells, 72 h
  MIC: 100 µM (≈ 79.5 µg/mL)
[2]; HL-60, 72 h
  GI50: 34.6 ± 1.9 µM

## C=CCOC(=O)C(CC)C1CCC(C)C(C(C)C(O)C(C)C(=O)C(CC)C2OC3(C=CC(O)C4(CCC(C)(C5CCC(O)(CC)C(C)O5)O4)O3)C(C)CC2C)O1 (stereo not drawn) [SAL-E3]
[1]
  Selectivity GI50 ratio: 10.9
  Selectivity MIC ratio: 10
  GI50: 3.1 ± 0.21 µM
[1]; T. brucei bloodstream forms
  MIC: 10 µM (≈ 7.91 µg/mL)
[2]; HL-60 cells, 72 h
  MIC: 100 µM (≈ 79.1 µg/mL)
[2]; HL-60, 72 h
  GI50: 33.8 ± 3.5 µM

## CCCCOC(=O)C(CC)C1CCC(C)C(C(C)C(O)C(C)C(=O)C(CC)C2OC3(C=CC(O)C4(CCC(C)(C5CCC(O)(CC)C(C)O5)O4)O3)C(C)CC2C)O1 (stereo not drawn) [SAL-E4]
[1]
  Selectivity GI50 ratio: 10.5
  Selectivity MIC ratio: 10
  GI50: 3.12 ± 0.08 µM
[1]; T. brucei bloodstream forms
  MIC: 10 µM (≈ 8.07 µg/mL)
[2]; HL-60 cells, 72 h
  MIC: 100 µM (≈ 80.7 µg/mL)
[2]; HL-60, 72 h
  GI50: 32.9 ± 2.5 µM

## CCC(C(=O)OCc1ccccc1)C1CCC(C)C(C(C)C(O)C(C)C(=O)C(CC)C2OC3(C=CC(O)C4(CCC(C)(C5CCC(O)(CC)C(C)O5)O4)O3)C(C)CC2C)O1 (stereo not drawn) [SAL-E5]
[1]
  Selectivity MIC ratio: 10
  GI50: 3.21 ± 0.02 µM
[1]; T. brucei bloodstream forms
  MIC: 10 µM (≈ 8.41 µg/mL)
[2]; HL-60 cells, 72 h
  MIC: 100 µM (≈ 84.1 µg/mL)
[2]; HL-60, 72 h
  GI50: 38.4 ± 4.2 µM

## CC[C@@H](C(=O)[C@@H](C)[C@@H](O)[C@H](C)[C@@H]1O[C@@H]([C@@H](CC)C(=O)O)CC[C@@H]1C)[C@H]1O[C@]2(C=C[C@@H](O)[C@]3(CC[C@@](C)([C@H]4CC[C@](O)(CC)[C@H](C)O4)O3)O2)[C@H](C)C[C@@H]1C [Salinomycin, salinomycin]
[1]
  Selectivity GI50 ratio: 2.4
  Selectivity MIC ratio: 1
  GI50: 0.18 ± 0.06 µM
[1]; T. brucei bloodstream forms
  MIC: 1 µM (≈ 0.751 µg/mL)
[2]; HL-60 cells, 72 h
  MIC: 1 µM (≈ 0.751 µg/mL)
[2]; HL-60, 72 h
  GI50: 0.44 ± 0.21 µM
[3]
  Effect on cell volume (absorbance at 490 nm): continued to swell until the end of experiment
[4]
  selectivity (cytotoxic/trypanocidal ratio): < 100
[5]
  EC50: 30 µM
Human nasal mucosa cells
  EC50: 11 µM

## Cc1ccc(C(=O)Nc2ccc(S(=O)(=O)O)c3cc(S(=O)(=O)O)cc(S(=O)(=O)O)c23)cc1NC(=O)c1cccc(NC(=O)Nc2cccc(C(=O)Nc3cc(C(=O)Nc4ccc(S(=O)(=O)O)c5cc(S(=O)(=O)O)cc(S(=O)(=O)O)c45)ccc3C)c2)c1 [Suramin, suramin, reference compound]
[1]
  Selectivity GI50 ratio: > 2857
  Selectivity MIC ratio: > 1000
[1]; T. brucei bloodstream forms, read-out: MIC
  MIC: 0.1 µM (≈ 0.13 µg/mL)
[1]; T. brucei bloodstream forms, resazurin, mean ± SD of three experiments, read-out: GI50
  GI50: 0.035 ± 0.002 µM
[2]; HL-60 cells, 72 h
  MIC: > 100 µM
[2]; HL-60 cells, 72 h, resazurin, mean ± SD of three experiments, read-out: GI50
  GI50: > 100 µM
